Values joined by “and” are separate entries in the source; they are usually repeats but may differ in a detail not shown here. Identical values can stand only once.
Tested on: LX-1 lung xenograft sc, nude mice, tumor weight
Assay: NCI In Vivo Anticancer Drug Screen. Data for tumor model Human Lung LX-1 Xenograft (subcutaneous) in NU/NU Swiss (nude) mice
Conditions: endpoint: optimum tumor weight change, higher = larger tumour
Procedure: The antitumor activity of compounds was measured in mice bearing transplantable tumors. Survival or tumor size were measured and the results are expressed as the measurement made in the treated group (T) divided by the measurement made in the vehicle treated control group (C). The tumor model used in this assay is Human Lung LX-1 Xenograft (subcutaneous) in NU/NU Swiss (nude) mice

[1] = dose: 3.13 mg/kg/injection, schedule: Q04DX003 (ip), vehicle: saline
[2] = dose: 6.25 mg/kg/injection, schedule: Q04DX003 (ip), vehicle: saline
[3] = dose: 0.25 mg/kg/injection, schedule: Q04DX003 (ip), vehicle: saline
[4] = dose: 0.5 mg/kg/injection, schedule: Q04DX003 (ip), vehicle: saline
[5] = dose: 1.0 mg/kg/injection, schedule: Q04DX003 (ip), vehicle: saline
[6] = dose: 4.0 mg/kg/injection, schedule: Q04DX003 (ip), vehicle: saline
[7] = dose: 25.0 mg/kg/injection, schedule: Q04DX003 (ip), vehicle: saline
[8] = dose: 50.0 mg/kg/injection, schedule: Q04DX003 (ip), vehicle: saline
[9] = dose: 12.5 mg/kg/injection, schedule: Q04DX003 (ip), vehicle: Klucel (hydroxypropylcellulose) (HPC)
[10] = dose: 12.5 mg/kg/injection, schedule: Q04DX003 (ip), vehicle: saline
[11] = dose: 25.0 mg/kg/injection, schedule: Q04DX003 (ip), vehicle: Klucel (hydroxypropylcellulose) (HPC)
[12] = dose: 50.0 mg/kg/injection, schedule: Q04DX003 (ip), vehicle: Klucel (hydroxypropylcellulose) (HPC)
[13] = dose: 50.0 mg/kg/injection, schedule: Q04DX003 (ip), vehicle: water
[14] = dose: 200.0 mg/kg/injection, schedule: Q04DX003 (ip), vehicle: saline
[15] = dose: 400.0 mg/kg/injection, schedule: Q04DX003 (ip), vehicle: saline
[16] = dose: 400.0 mg/kg/injection, schedule: Q04DX003 (ip), vehicle: suspension in saline
[17] = dose: 1.5 mg/kg/injection, schedule: Q04DX003 (ip), vehicle: saline

For COc1cc([C@@H]2c3cc4c(c(O)c3C[C@H]3COC(=O)[C@@H]32)OCO4)cc(OC)c1O, the T/C [1] was 122 % of control and the T/C [2] was 55 % of control.

For CC[C@]1(O)C[C@H]2CN(CCc3c([nH]c4ccccc34)[C@@](C(=O)OC)(c3cc4c(cc3OC)N(C=O)[C@H]3[C@@](O)(C(=O)OC)[C@H](OC(C)=O)[C@]5(CC)C=CCN6CC[C@]43[C@@H]65)C2)C1, the T/C [3] was 98 % of control and the T/C [4] was 79 % of control.

For [N-]=[N+]=CC(=O)CCC(N)C(=O)O (centres undefined), the T/C (dose: 37.5 mg/kg/injection, schedule: Q04DX003 (ip), vehicle: saline) was -87 % of control.

In the case of CC[C@](O)(C(=O)O)c1cc2n(c(=O)c1CO)Cc1cc3ccccc3nc1-2, the T/C [5] is reported as 40 % of control, the T/C [6] is reported as 26 % of control and 40 % of control and the T/C (dose: 8.0 mg/kg/injection, schedule: Q04DX003 (ip), vehicle: saline) is reported as 32 % of control and 35 % of control. The T/C (dose: 16.0 mg/kg/injection, schedule: Q04DX003 (ip), vehicle: saline) was 29 % of control.

In the case of O=P1(NCCCl)OCCCN1CCCl (centres undefined), the T/C [2] is reported as 26 % of control, the T/C [7] is reported as 54 % of control and the T/C [8] is reported as 39 % of control.

In the case of CO[C@H]1C[C@](C)(O)Cc2cc3c(c(O)c21)C(=O)c1c(O)cc2c(c1C3=O)O[C@@H]1O[C@@]2(C)[C@H](O)[C@@H](N(C)C)[C@@H]1O, the T/C (dose: 6.25 mg/kg/injection, schedule: Q04DX003 (ip), vehicle: other) is reported as 53 % of control and the T/C (dose: 12.5 mg/kg/injection, schedule: Q04DX003 (ip), vehicle: other) is reported as 114 % of control.

With COc1cccc2c1C(=O)c1c(O)c3c(c(O)c1C2=O)C[C@@](O)(C(C)=O)C[C@@H]3OC1CC(N)C(O)C(C)O1 (some centres undefined) the T/C [3] was 52 % of control, the T/C [4] was 39 % of control and the T/C [5] was 86 % of control.

For COc1cccc2c1C(=O)c1c(O)c3c(c(O)c1C2=O)C[C@@](O)(C(=O)CO)C[C@@H]3OC1CC(N)C(OC)C(C)O1 (some centres undefined), the T/C (dose: 0.4 mg/kg/injection, schedule: Q04DX003 (ip), vehicle: saline) was 84 % of control, the T/C (dose: 0.79 mg/kg/injection, schedule: Q04DX003 (ip), vehicle: saline) was 106 % of control and the T/C (dose: 1.57 mg/kg/injection, schedule: Q04DX003 (ip), vehicle: saline) was 40 % of control.

For CCC[CH2][Sn]1([CH2]CCC)[O]C2C(CO)OC(n3ccc(N)nc3=O)C2[O]1 (centres undefined), the T/C (dose: 3.13 mg/kg/injection, schedule: Q04DX003 (ip), vehicle: Klucel (hydroxypropylcellulose) (HPC)) was 107 % of control and 108 % of control, the T/C (dose: 6.25 mg/kg/injection, schedule: Q04DX003 (ip), vehicle: Klucel (hydroxypropylcellulose) (HPC)) was 197 % of control and the T/C [9] was 77 % of control.

COc1cccc2c1C(=O)c1c(O)c3c(c(O)c1C2=O)C[C@@](O)(/C(C)=N\O)C[C@@H]3OC1CC(N)C(O)C(C)O1 (some centres undefined) was tested, and the T/C [10] was 55 % of control.

In the case of CC(=O)OCC(=O)[C@@]12OC(C)(C)O[C@@H]1C[C@H]1[C@@H]3CC(C=O)=C4C=C(OCCCl)CC[C@]4(C)[C@@]3(F)[C@@H](O)C[C@@]12C, the T/C [11] is reported as 96 % of control and the T/C [12] is reported as 106 % of control.

For O=C/C(Cl)=C(/Cl)C(=O)O, the T/C (dose: 3.13 mg/kg/injection, schedule: Q04DX003 (ip), vehicle: saline with Tween-80) was 112 % of control, the T/C (dose: 6.25 mg/kg/injection, schedule: Q04DX003 (ip), vehicle: saline with Tween-80) was 84 % of control and the T/C (dose: 12.5 mg/kg/injection, schedule: Q04DX003 (ip), vehicle: saline with Tween-80) was 71 % of control.

With O=C1c2c(O)ccc(O)c2C(=O)c2c(NCCNCCO)ccc(NCCNCCO)c21 the T/C (dose: 0.31 mg/kg/injection, schedule: Q04DX003 (ip), vehicle: water) was 52 % of control.

With CCOC(=O)C1C2OC(=O)C(C(=O)C2CN(CCCl)CCCl)C1C1CC=C(CC2=CCC(C3C4C(=O)OC(C(CN(CCCl)CCCl)C4=O)C3C(=O)OCC)CC2)CC1 (centres undefined) the T/C [11] was 58 % of control, the T/C [12] was 64 % of control and the T/C (dose: 100.0 mg/kg/injection, schedule: Q04DX003 (ip), vehicle: Klucel (hydroxypropylcellulose) (HPC)) was 55 % of control.

For CN1N=C(N)c2cn(C3OC(COP(=O)(O)O)C(O)C3O)c3ncnc1c23 (centres undefined), the T/C [13] was 86 % of control.

For N=c1ccn2c(n1)OC1C(O)C(CO)OC12 (centres undefined), the T/C [14] was 66 % of control, the T/C [15] was 83 % of control and the T/C [16] was 45 % of control and 61 % of control. The T/C (dose: 800.0 mg/kg/injection, schedule: Q04DX003 (ip), vehicle: saline) was 41 % of control, the T/C (dose: 800.0 mg/kg/injection, schedule: Q04DX003 (ip), vehicle: suspension in saline) was 17 % of control and the T/C (dose: 1600.0 mg/kg/injection, schedule: Q04DX003 (ip), vehicle: saline) was 18 % of control. For the same molecule, the T/C (dose: 1600.0 mg/kg/injection, schedule: Q04DX003 (ip), vehicle: suspension in saline) was 27 % of control.

CN(N=O)C(=O)N[C@@H](C=O)[C@@H](O)[C@H](O)[C@H](O)CO was tested, and the T/C (dose: 100.0 mg/kg/injection, schedule: Q04DX003 (ip), vehicle: saline) was 150 % of control and the T/C [14] was 64 % of control.

N[C@H](C(=O)O)[C@@H]1CC(Cl)=NO1 was tested, and the T/C (dose: 8.0 mg/kg/injection, schedule: Q01DX009 (ip), vehicle: saline) was 31 % of control, the T/C (dose: 16.0 mg/kg/injection, schedule: Q01DX009 (ip), vehicle: saline) was 17 % of control and the T/C (dose: 32.0 mg/kg/injection, schedule: Q01DX009 (ip), vehicle: saline) was 24 % of control. For the same molecule, the T/C (dose: 100.0 mg/kg/injection, schedule: Q04DX003 (ip), vehicle: suspension in saline) was 36 % of control, the T/C (dose: 200.0 mg/kg/injection, schedule: Q04DX003 (ip), vehicle: suspension in saline) was 27 % of control and the T/C [15] was 6 % of control. The T/C [16] was 15 % of control.

For ClCC[N+]12CC[N+](CCCl)(CC1)C2, the T/C [13] was 81 % of control, the T/C (dose: 100.0 mg/kg/injection, schedule: Q04DX003 (ip), vehicle: saline with Tween-80) was 103 % of control and the T/C (dose: 100.0 mg/kg/injection, schedule: Q04DX003 (ip), vehicle: water) was 106 % of control. For the same molecule, the T/C (dose: 200.0 mg/kg/injection, schedule: Q04DX003 (ip), vehicle: saline with Tween-80) was 72 % of control, the T/C (dose: 200.0 mg/kg/injection, schedule: Q04DX003 (ip), vehicle: water) was 59 % of control and the T/C (dose: 400.0 mg/kg/injection, schedule: Q04DX003 (ip), vehicle: saline with Tween-80) was 74 % of control. For the same molecule, the T/C (dose: 400.0 mg/kg/injection, schedule: Q04DX003 (ip), vehicle: water) was 48 % of control.

CN1CCN(CCCN2c3ccccc3Sc3ccc(C(F)(F)F)cc32)CC1 was tested, and the T/C [2] was 63 % of control, the T/C [10] was 78 % of control and the T/C [7] was 84 % of control.

COc1ccc2c(NCCCCCCCCNc3c4ccccc4nc4cc(OC)ccc34)c3ccccc3nc2c1 was tested, and the T/C (dose: 0.5 mg/kg/injection, schedule: Q04DX003 (ip), vehicle: distilled water + alcohol) was 67 % of control, the T/C [4] was 60 % of control and the T/C (dose: 1.0 mg/kg/injection, schedule: Q04DX003 (ip), vehicle: distilled water + alcohol) was 45 % of control. The T/C [5] was 61 % of control, the T/C (dose: 2.0 mg/kg/injection, schedule: Q04DX003 (ip), vehicle: distilled water + alcohol) was 79 % of control and the T/C (dose: 2.0 mg/kg/injection, schedule: Q04DX003 (ip), vehicle: saline) was 86 % of control. The T/C (dose: 4.0 mg/kg/injection, schedule: Q04DX003 (ip), vehicle: distilled water + alcohol) was 45 % of control and the T/C [6] was 65 % of control.

For CO[C@@]12[C@H](COC(N)=O)C3=C(C(=O)C(C)=C(N)C3=O)N1C[C@@H]1N[C@@H]12, the T/C [17] was 98 % of control and the T/C (dose: 3.0 mg/kg/injection, schedule: Q04DX003 (ip), vehicle: saline) was 40 % of control.

In the case of C=C(C)[C@H]1Cc2c(ccc3c2O[C@@H]2COc4cc(OC)c(OC)cc4[C@@H]2C3=O)O1, the T/C [1] is reported as 106 % of control, the T/C [2] is reported as 73 % of control and the T/C [10] is reported as 91 % of control. For the same molecule, the T/C [7] was 102 % of control.

With CN(C)N=Nc1ccccc1 the T/C [9] was 94 % of control and the T/C [11] was 61 % of control and 79 % of control.

For COC1C(O)CC(OC2CC(OC3CC(O[C@@H]4C(=O)c5c(cc6cc(OC7CC(OC8CC(O)C(O)C(C)O8)C(O)C(C)O7)c(C)c(O)c6c5O)C[C@H]4[C@H](OC)C(=O)[C@@H](O)[C@@H](C)O)OC(C)C3O)OC(C)C2O)OC1C (some centres undefined), the T/C (dose: 0.75 mg/kg/injection, schedule: Q04DX003 (ip), vehicle: saline) was 104 % of control and the T/C [17] was 53 % of control and 62 % of control.

With N=C(N)Sc1ccccn1 the T/C [8] was 182 % of control.

Source: PubChem BioAssay AID262 (DTP/NCI, 2004)
